Test results taken from patent publication EP0260814B1, “Dopamine-Beta-hydroxylase inhibitors” (SMITHKLINE BEECHAM CORPORATION, priority 1986, dated 1988).

Columns and labels:
DBH [1] = target: T1, DBH (Homo sapiens, UniProt P09172); assay: in vitro DBH inhibition: conversion of tyramine to octopamine in the presence of DBH, absorbance at 330 nm; assay type: biochemical
T1 sequence (P09172 1-617): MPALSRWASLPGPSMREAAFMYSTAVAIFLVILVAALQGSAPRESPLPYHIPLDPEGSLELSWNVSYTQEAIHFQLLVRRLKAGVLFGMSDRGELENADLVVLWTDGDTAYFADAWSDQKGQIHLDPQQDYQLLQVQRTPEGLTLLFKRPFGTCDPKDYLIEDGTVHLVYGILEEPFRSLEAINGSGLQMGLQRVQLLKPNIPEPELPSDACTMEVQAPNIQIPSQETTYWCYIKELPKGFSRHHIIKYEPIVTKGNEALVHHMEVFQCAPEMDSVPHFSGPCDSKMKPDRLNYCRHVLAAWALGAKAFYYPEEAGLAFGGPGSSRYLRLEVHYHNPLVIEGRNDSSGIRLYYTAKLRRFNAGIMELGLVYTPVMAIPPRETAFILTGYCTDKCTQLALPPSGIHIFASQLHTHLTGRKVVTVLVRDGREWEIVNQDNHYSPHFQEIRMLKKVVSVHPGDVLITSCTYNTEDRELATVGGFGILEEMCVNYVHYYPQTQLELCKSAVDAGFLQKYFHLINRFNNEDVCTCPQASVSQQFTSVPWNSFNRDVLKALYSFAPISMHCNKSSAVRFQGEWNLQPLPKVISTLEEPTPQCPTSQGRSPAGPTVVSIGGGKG
Procedure: Octopamine was assayed following sodium periodate oxidation to p-hydroxybenzaldehyde by measuring spectrophotometric absorbance at 330 nm. […] Melting points (mp) are given in °C. […]

[2] = study comparing effects on blood pressure of hydroxy compounds and their methoxy analogues; assay type: in vivo; conditions: for blood pressure reductions: equivalent doses of hydroxy compound and methoxy analogue
Text: In a study conducted to compare the effects on blood pressure of compounds wherein Y is -OH, X is 3-F or 3,5-F₂ and n is 1 to their Y is -OCH₃ analogues, the maximum blood pressure reduction observed after administration of the hydroxy compound in which X is 3-F was 18%, whereas one-half the dose of its methoxy analogue produced a 35% blood pressure reduction. Also, equivalent doses of the compound in which Y is -OH, X is 3,5-F₂, and n is 1 and its Y is -OCH₃ analogue produced, respectively, 20% and 35% blood pressure reductions.

[3] = test system: peripheral dopamine and norepinephrine levels; assay: effects on peripheral dopamine and norepinephrine levels (procedure of DaPrada and Zürcher); assay type: in vivo, Spontaneously hypertensive rats
Procedure: Spontaneously hypertensive rats were dosed twice, the second dose being about 18 hr after the first, and were sacrificed about 2 hr after the second dose. […] In Table II, R= -H, Y= -OH and n=1; in Table II A, R= -H, Y= -OCH₃, and n=1.

DBH [4] = target: T1, DBH; conditions: reported by Runti et al.; cited from earlier work

## COc1ccc(Cn2ccnc2S)cc1F [Example 5, 1-(3-Fluoro-4-methoxybenzyl)-2-mercaptoimidazole]
DBH [1]; at 10⁻⁴ molar concentration
  inhibition at 100 µM: 67%
[2]; one-half the dose of the hydroxy compound in which X is 3-F
  blood pressure reduction: 35%

## COc1c(F)cc(Cn2ccnc2S)cc1F [Example 6, 1-(3,5-Difluoro-4-methoxybenzyl)-2-mercaptoimidazole]
[2]; dose not given
  blood pressure reductions: 35%
[3]; Table IIA (R= -H, Y= -OCH₃, n=1), dose not given
  DA/NE Ratio: .204^(1)
[3]; Table IIA (R= -H, Y= -OCH₃, n=1), dose not given, dosed twice, sacrificed about 2 hr after second dose
  DA: 1.178 ± .087 µg/g

## Oc1c(F)cc(Cn2ccnc2S)cc1F [n=1, X=3,5-F₂, Y=OH, R=H]
[2]; dose not given
  blood pressure reductions: 20%
[3]; Table II (for X= compounds: R= -H, Y= -OH, n=1), 50 mg/kg, dosed twice
  DA/NE Ratio: .0824 .0128^(2)
[3]; Table II (for X= compounds: R= -H, Y= -OH, n=1), 50 mg/kg, dosed twice, sacrificed about 2 hr after second dose
  DA (µg/g): .708 .068^(1) µg/g

## Oc1ccc(Cn2ccnc2S)cc1F [n=1, X=3-F, Y=OH, R=H]
DBH [1]; molar concentration of compound at which DBH activity was halved, read-out: IC₅₀
  IC50: 1.4 µM
[2]; after administration of the hydroxy compound, dose not given
  maximum blood pressure reduction: 18%

## O=C(O)c1ccc(Cc2ccc(O)cc2)cn1 [phenypicolinic acid]
DBH [4]
  inhibitory activity relative to fusaric acid: twice the inhibitory activity of fusaric acid
